In PMC6789174 (Drug Design, Development and Therapy, 2019):
Values after ≈ are worked out from the molar mass of the structure shown.

How the values were obtained:
Staphylococcus aureus = assay: Anti-bacterial activity, agar well diffusion; assay type: cell-based
glucose-6-phosphatase = target: T1, glucose-6-phosphatase (Homo sapiens, UniProt P35575); assay: Glucose-6-phosphatase activity; assay type: biochemical; conditions: 33°C, pH 6.7, control 72.0
T1 sequence (P35575 1-357): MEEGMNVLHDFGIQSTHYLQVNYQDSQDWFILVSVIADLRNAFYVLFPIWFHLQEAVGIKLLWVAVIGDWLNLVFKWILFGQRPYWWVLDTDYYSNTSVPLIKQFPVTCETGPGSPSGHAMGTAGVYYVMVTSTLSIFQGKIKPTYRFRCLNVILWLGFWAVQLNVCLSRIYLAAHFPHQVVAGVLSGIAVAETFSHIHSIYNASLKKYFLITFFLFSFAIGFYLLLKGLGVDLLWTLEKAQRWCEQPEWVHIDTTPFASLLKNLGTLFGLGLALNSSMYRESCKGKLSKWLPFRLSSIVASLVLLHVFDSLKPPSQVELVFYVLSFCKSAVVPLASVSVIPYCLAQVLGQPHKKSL

Butyrylcholinesterase = Butyrylcholinesterase (Homo sapiens, UniProt P06276); assay: Anticholinesterase assay; assay type: biochemical
Butyrylcholinesterase, sequence (P06276 29-602): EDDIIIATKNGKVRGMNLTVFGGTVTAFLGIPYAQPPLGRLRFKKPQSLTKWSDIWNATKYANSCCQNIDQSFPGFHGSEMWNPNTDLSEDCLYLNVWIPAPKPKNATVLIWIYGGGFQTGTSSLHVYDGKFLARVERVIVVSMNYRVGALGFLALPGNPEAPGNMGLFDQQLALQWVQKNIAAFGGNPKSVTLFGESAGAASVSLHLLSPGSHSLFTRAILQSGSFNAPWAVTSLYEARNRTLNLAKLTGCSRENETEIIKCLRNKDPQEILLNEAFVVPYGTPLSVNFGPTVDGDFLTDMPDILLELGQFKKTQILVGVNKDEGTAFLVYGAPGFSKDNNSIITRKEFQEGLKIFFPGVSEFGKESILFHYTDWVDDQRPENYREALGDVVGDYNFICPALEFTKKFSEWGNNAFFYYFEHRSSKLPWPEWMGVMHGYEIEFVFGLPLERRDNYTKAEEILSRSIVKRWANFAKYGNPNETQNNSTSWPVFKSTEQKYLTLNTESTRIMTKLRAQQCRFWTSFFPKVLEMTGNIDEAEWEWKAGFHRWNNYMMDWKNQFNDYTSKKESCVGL

porcine α-amylase = target: T2, porcine α-amylase (Sus scrofa, UniProt P00690); assay: biochemical
T2 sequence (P00690 16-511): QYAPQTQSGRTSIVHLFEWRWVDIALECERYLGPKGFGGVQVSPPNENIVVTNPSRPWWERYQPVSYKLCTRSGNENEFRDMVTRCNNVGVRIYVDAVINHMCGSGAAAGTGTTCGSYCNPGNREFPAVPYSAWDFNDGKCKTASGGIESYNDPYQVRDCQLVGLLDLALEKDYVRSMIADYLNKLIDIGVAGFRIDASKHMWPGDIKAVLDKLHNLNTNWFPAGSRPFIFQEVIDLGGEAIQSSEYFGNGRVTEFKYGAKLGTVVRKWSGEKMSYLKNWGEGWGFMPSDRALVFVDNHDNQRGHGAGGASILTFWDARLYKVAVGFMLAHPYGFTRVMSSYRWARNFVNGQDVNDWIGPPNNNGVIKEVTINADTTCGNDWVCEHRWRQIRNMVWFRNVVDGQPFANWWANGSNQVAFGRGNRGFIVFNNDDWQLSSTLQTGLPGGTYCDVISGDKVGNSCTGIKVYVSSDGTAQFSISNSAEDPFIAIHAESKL

α-glucosidase = α-glucosidase (Saccharomyces cerevisiae, UniProt P53341); assay: Alpha glucosidase inhibition; assay type: biochemical; conditions: concentration 250 μg/mL
α-glucosidase, sequence (P53341 whole entry): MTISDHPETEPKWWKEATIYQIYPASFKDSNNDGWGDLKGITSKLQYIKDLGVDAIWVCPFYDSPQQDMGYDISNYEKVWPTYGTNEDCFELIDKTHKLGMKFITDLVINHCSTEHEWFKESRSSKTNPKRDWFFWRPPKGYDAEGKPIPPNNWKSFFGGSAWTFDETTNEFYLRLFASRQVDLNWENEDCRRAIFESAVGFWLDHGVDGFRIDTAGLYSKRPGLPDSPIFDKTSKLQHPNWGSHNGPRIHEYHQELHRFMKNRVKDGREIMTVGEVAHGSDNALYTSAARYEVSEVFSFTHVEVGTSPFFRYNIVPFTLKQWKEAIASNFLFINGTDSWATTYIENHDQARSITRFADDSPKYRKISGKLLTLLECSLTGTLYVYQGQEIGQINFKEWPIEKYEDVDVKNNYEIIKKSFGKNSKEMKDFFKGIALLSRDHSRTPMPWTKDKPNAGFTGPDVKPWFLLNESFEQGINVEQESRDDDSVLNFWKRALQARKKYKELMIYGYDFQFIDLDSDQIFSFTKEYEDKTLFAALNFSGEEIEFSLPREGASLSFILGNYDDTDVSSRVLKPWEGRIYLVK

Acetylcholinesterase = Acetylcholinesterase (Homo sapiens, UniProt P22303); assay: biochemical
Acetylcholinesterase, sequence (P22303 32-614, species assumed): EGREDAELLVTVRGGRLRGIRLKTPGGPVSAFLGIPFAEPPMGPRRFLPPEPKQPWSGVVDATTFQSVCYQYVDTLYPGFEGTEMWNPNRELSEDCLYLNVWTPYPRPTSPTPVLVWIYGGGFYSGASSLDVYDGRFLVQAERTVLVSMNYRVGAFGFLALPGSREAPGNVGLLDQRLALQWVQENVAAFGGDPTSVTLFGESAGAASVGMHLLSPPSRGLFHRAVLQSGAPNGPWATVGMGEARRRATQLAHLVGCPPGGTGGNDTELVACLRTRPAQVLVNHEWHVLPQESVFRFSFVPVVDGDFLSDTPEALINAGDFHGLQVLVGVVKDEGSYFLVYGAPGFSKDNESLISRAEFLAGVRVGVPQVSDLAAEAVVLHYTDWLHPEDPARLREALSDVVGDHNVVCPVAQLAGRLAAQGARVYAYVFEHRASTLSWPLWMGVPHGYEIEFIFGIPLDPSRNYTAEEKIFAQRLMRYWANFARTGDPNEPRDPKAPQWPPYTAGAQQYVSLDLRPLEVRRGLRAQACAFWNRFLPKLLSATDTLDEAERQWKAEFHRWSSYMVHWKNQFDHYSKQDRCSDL

[1] = ABTS free radical scavenging
Proteus vulgaris = assay: Anti-bacterial activity, agar well diffusion; assay type: cell-based
[2] = system: Agrobacterium tumefaction; assay: Anti-bacterial activity, agar well diffusion; assay type: cell-based
[3] = DPPH free radical scavenging
[4] = read-out: ZI (Zone of inhibition), Staphylococcus aureus
[5] = read-out: %BChE Inhibition (mean ± SEM)
[6] = read-out: %AChE Inhibition (mean ± SEM)
[7] = read-out: ZI (Zone of inhibition), Proteus vulgaris
[8] = read-out: ZI (Zone of inhibition), Agrobacterium tumefaction

Structure (SMILES): Cc1ccc(NC(=S)Nc2ccccc2)c(C)c1 [Compound IV, 1-(2,4-dimethylphenyl)-3-phenylthiourea]
- MIC (Staphylococcus aureus; read-out: MIC, Staphylococcus aureus): 4.03 µg/mL (≈ 15.7 µM)
- zone of inhibition at 10 µg/mL (Staphylococcus aureus; [4]): 21 mm
- zone of inhibition at 20 µg/mL (Staphylococcus aureus; [4]): 23 mm
- zone of inhibition at 30 µg/mL (Staphylococcus aureus; [4]): 26 mm
- Total Activity of glucose-6-phosphatase (glucose-6-phosphatase; concentration 125 µg/mL): 17.70 mg of P released per hour
- Total Activity of glucose-6-phosphatase (glucose-6-phosphatase; concentration 250 µg/mL): 13.58 mg of P released per hour
- Total Activity of glucose-6-phosphatase (glucose-6-phosphatase; concentration 500 µg/mL): 11.77 mg of P released per hour
- IC50 (Butyrylcholinesterase): 585 µM
- inhibition at 125 µg/mL (Butyrylcholinesterase; [5]): 49.8 ± 1.53%
- inhibition at 250 µg/mL (Butyrylcholinesterase; [5]): 53.5 ± 1.07%
- inhibition at 500 µg/mL (Butyrylcholinesterase; [5]): 60.5 ± 1.61%
- inhibition at 1000 µg/mL (Butyrylcholinesterase; [5]): 76.1 ± 1.9%
- IC50 (porcine α-amylase): 242 µM
- inhibition at 125 µg/mL (porcine α-amylase; read-out: %Inhibition (mean ± SEM), alpha amylase, concentration 125 µg/mL): 69 ± 1.19%
- inhibition at 250 µg/mL (porcine α-amylase; read-out: %Inhibition (mean ± SEM), alpha amylase, concentration 250 µg/mL): 75.63 ± 0.63%
- inhibition at 500 µg/mL (porcine α-amylase; read-out: %Inhibition (mean ± SEM), alpha amylase, concentration 500 µg/mL): 79.2 ± 1.09%
- inhibition at 1000 µg/mL (porcine α-amylase; read-out: %Inhibition (mean ± SEM), alpha amylase, concentration 1000 µg/mL): 80.1 ± 2.02%
- %Inhibition (mean ± SEM), alpha glucosidase (α-glucosidase): 55.88 ± 2.04%
- IC50 (Acetylcholinesterase): 1960 µM
- inhibition at 125 µg/mL (Acetylcholinesterase; [6]): 42 ± 1.01%
- inhibition at 250 µg/mL (Acetylcholinesterase; [6]): 45.1 ± 1.83%
- inhibition at 500 µg/mL (Acetylcholinesterase; [6]): 50 ± 1.88%
- inhibition at 1000 µg/mL (Acetylcholinesterase; [6]): 64 ± 1.7%
- ABTS IC50 [1]: 100 µg/mL
- ABTS radical scavenging, in words [1]: moderately effective
- ABTS % I (mean ± S.E.M) ([1]; concentration 125 μg/mL): 64.81 ± 1.05%
- ABTS % I (mean ± S.E.M) ([1]; concentration 250 μg/mL): 70.13± 0.05%
- ABTS % I (mean ± S.E.M) ([1]; concentration 500 μg/mL): 74.99 ± 1.51%
- ABTS % I (mean ± S.E.M) ([1]; concentration 1000 μg/mL): 78.15 ± 1.21%
- MIC (Proteus vulgaris; read-out: MIC, Proteus vulgaris): 11.9 µg/mL (≈ 46.5 µM)
- zone of inhibition at 10 µg/mL (Proteus vulgaris; [7]): 14 mm
- zone of inhibition at 20 µg/mL (Proteus vulgaris; [7]): 18 mm
- zone of inhibition at 30 µg/mL (Proteus vulgaris; [7]): 23 mm
- MIC ([2]; read-out: MIC, Agrobacterium tumefaction): 13.5 µg/mL (≈ 52.6 µM)
- zone of inhibition at 10 µg/mL [2, 8]: 14 mm
- zone of inhibition at 20 µg/mL [2, 8]: 18 mm
- zone of inhibition at 30 µg/mL [2, 8]: 23 mm
- DPPH IC50 [3]: 64 µg/mL
- DPPH % I (mean ± S.E.M) ([3]; concentration 125 μg/mL): 66.15 ± 1.70%
- DPPH % I (mean ± S.E.M) ([3]; concentration 250 μg/mL): 69.31 ± 2.11%
- DPPH % I (mean ± S.E.M) ([3]; concentration 500 μg/mL): 74.13 ± 1.51%
- DPPH % I (mean ± S.E.M) ([3]; concentration 1000 μg/mL): 79.15 ± 1.23%
